Data set [1] in a line: Cell viability assay (CellTiter-Glo) on MOLM-13. The class given is cell-based. Conditions: human, MOLM-13 cells, average of two biological replicates; for viability at 72 h, […]: 2.5 µM. The method, boiled down: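 MOLM-13 AML cells grown in RPMI 1640 with 10% FBS at 37 °C, 5% CO2. Viability read as ATP luminescence by CellTiter-Glo after 10 min at room temperature, with background from cell-free medium wells subtracted.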
(ATP-based viability assays read luminescence as a measure of living cells.)

Data set [2] deals with T1, METTL3-14 (Homo sapiens, UniProt Q86U44). Description: Cellular degradation assay (Western blot), METTL3 and/or METTL14 (METTL3–14) in MOLM-13. It counts as cell-based. Details: METTL3–14 degradation up to 70% of the endogenous level; endogenous in cells; host or cells: MOLM-13, KASUMI-1, THP-1, NOMO-1. Conditions: for concentration at which the highest degradation was observed: MOLM-13, five concentrations; for METTL3–14 levels in the presence of UZH2: MOLM-13, 2 μM PROTAC + 10 μM UZH2; for METTL3–14 degradation in the presence of lenalidomide: MOLM-13, 2 μM PROTAC + 10 μM lenalidomide; for degradation of METTL3 and/or METTL14: MOLM-13, 2 μM, 24 h, Western blot. The method, boiled down:
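MOLM-13 cells exposed to PROTACs or 0.1% (v/v) DMSO for 24h at 37 °C, 5% CO2. METTL3 (and METTL14) protein levels measured by Western blot with densitometry.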
On the technique in general: A western blot detects proteins with antibodies after separation by electrophoresis.

In data set [3] the target is T1, METTL3-14. Description: Cellular degradation assay (Western blot) in THP-1. It counts as cell-based. On the set-up: METTL3–14 degradation up to 70% of the endogenous level; endogenous in cells; host or cells: MOLM-13, KASUMI-1, THP-1, NOMO-1. Conditions: THP-1, 2 μM, 24 h. The method, then: (§1) MOLM-13, NOMO-1, THP-1, Kasumi-1, PC3, and DU145 cell lines were obtained from DSMZ-German Collection of Microorganisms and Cell Cultures GmbH. Cells were cultured in RPMI 1640 medium (11875093, Thermo Fisher Scientific) containing 10% FBS (16140071, Thermo Fisher Scientific) and 1% penicillin-streptomycin (15140122, Thermo Fisher Scientific) in 5% CO2 at 37 °C in a humidified incubator, with maintained cell densities at 0.5–1 × 10^6 cells/mL. All cell lines were tested negative for mycoplasma contamination (PCR-based assay by Microsynth, Switzerland).
(§2) METTL3 (and METTL14) protein degradation was monitored by Western blot. Cells were treated with the indicated concentration of PROTACs or DMSO control (0.1% (v/v)) for 24h, 37 °C with 5% CO2. Samples were then collected and lysed with RIPA buffer with added protease inhibitors (11697498001, Roche). After SDS-PAGE, proteins were transferred to a nitrocellulose membrane, blocked (with 5% milk, 0.5% BSA in TBST buffer), and incubated overnight with primary antibodies. The following antibodies were used: GAPDH (no. 2118, Cell Signaling, 1:4000), β-actin (ab8226, Abcam, 1:2000), METTL3 (ab195352, Abcam, 1:1000), and METTL14 (ab220031, Abcam, 1:1000). Membranes were scanned using an LI-COR Odyssey DLx imager after incubation with appropriate secondary antibodies (antimouse IgG IRDye 680RD (926–68072, LI-COR, 1:10000) and goat anti-Rabbit IgG IRDye 800CW (926–32211, LI-COR, 1:10000)). Densitometry was performed in Image Studio Lite software and analyzed in GraphPad Prism 9.

The next data set relates to METTL14. Description: Cellular degradation assay (Western blot), METTL14 in MOLM-13. The class given is cell-based, human. As to conditions: MOLM-13, 24 h, 2 μM compound. Put shortly:
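24h PROTAC exposure (DMSO 0.1% v/v control), 37 °C, 5% CO2; RIPA lysis, SDS-PAGE, nitrocellulose, anti-METTL3/anti-METTL14 blots, GAPDH/β-actin loading controls, IR imaging, densitometry.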

Data set [4] deals with T1, METTL3-14. Description: Cellular degradation assay (Western blot) in NOMO-1. It counts as cell-based. Details: METTL3–14 degradation up to 70% of the endogenous level; endogenous in cells; host or cells: MOLM-13, KASUMI-1, THP-1, NOMO-1. As to conditions: NOMO-1, 2 μM, 24 h. The method, then: as §1, §2
Another data set addresses T2, METTL3 (Homo sapiens, UniProt Q86U44).
T2 construct: METTL3–14 degradation up to 70% of the endogenous level; endogenous in cells; host or cells: MOLM-13, PC3, DU145
Nature of the data set: Cellular degradation assay (Western blot) in PC3. The class given is cell-based. As to conditions: PC3, 2 μM, 24 h. How it is done:
as §1
as §2, with “Membranes were scanned using an LI-COR Odyssey DLx imager after incubation with appropriate secondary antibodies (antimouse IgG IRDye 680RD (926–68072, LI-COR, 1:10000) and goat anti-Rabbit IgG IRDye 800CW (926–32211, LI-COR, 1:10000)).” left out

The next data set relates to PC3 cell line. Description: Cell viability assay (CellTiter-Glo) on PC3. The class given is cell-based, human. The method, then: as §1
Cells were seeded in white clear-bottom 96-well plates at a density of 6–20 × 10^3 cells/well in 50 μL of the complete RPMI medium and treated with 50 μL of increasing concentrations of the indicated compounds dissolved in DMSO (final concentration of compounds 0.01–10 μM) or DMSO only as a negative control (0.01% (v/v)) and incubated for 72 h at 37 °C with 5% CO2. Cell viability was determined using a CellTiter-Glo luminescent cell viability assay (Promega) based on the detection of ATP according to the manufacturer’s instructions. 100 μL of the reagent was added to each well and incubated for 10 min at room temperature. The luminescence was recorded using a Tecan Infinite […] M1000 microplate reader from the top. Background luminescence value was obtained from wells containing the CellTiter-Glo reagent and medium without cells. The resulting data was analyzed in GraphPad Prism 9.

Consider five molecules from paper PMC10900215 (JACS Au, 2024).

Where “and” joins values, the source holds several entries; their conditions need not be identical. Equal values may be shown once.

T1 sequence (Q86U44 2-580 limits assumed): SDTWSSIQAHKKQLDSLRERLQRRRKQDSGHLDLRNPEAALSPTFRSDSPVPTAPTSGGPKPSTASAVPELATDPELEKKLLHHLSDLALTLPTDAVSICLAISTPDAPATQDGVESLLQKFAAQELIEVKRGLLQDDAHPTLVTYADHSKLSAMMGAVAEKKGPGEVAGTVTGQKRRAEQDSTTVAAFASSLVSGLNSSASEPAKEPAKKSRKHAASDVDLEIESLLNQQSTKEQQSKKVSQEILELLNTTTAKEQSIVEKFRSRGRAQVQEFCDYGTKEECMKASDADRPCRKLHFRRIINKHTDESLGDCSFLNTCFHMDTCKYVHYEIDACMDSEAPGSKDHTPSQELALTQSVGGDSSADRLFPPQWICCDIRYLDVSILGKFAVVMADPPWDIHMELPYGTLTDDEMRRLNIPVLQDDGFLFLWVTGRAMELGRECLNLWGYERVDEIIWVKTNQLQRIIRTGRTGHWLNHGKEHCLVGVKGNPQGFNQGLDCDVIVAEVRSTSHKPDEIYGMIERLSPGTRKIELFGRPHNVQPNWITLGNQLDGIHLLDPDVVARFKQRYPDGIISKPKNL
T1 sequence (Q9HCE5 whole entry partner): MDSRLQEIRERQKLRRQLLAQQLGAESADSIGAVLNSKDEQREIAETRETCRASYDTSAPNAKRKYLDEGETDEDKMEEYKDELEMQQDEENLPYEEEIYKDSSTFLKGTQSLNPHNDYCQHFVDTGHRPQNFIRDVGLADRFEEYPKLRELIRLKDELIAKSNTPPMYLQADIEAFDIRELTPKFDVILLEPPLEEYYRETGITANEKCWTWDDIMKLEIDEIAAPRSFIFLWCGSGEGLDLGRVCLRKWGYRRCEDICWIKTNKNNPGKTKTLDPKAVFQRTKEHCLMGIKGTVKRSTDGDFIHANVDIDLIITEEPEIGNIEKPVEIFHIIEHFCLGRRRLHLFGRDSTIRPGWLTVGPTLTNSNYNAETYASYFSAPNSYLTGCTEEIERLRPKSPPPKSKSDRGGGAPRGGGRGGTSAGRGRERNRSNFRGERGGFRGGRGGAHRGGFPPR
T2 sequence (Q86U44 2-580 limits assumed): as the sequence (Q86U44 2-580 limits assumed) above
T2 sequence (Q9HCE5 whole entry partner): as the sequence (Q9HCE5 whole entry partner) above

On to `CC1(C)CCN(Cc2cc(F)c(N3CC(=O)NC4(CCN(c5cc(NCc6cccc(CNC(=O)CCCNc7cccc8c7C(=O)N(C7CCC(=O)NC7=O)C8=O)c6)ncn5)CC4)C3)cc2F)CC1` (centres unmarked) [Compound 14], for which, in data set [1], the viability (usually a read-out of living cells in per cent, often relative to untreated cells) at 72 h, 0.6 µM is 95.5%; the viability at 72 h, 1.25 µM came to 97.5%; the viability at 72 h, […] was determined as 103%; the viability at 72 h, 5 µM amounted to 102%. Besides, the viability at 72 h, 10 µM in data set [1] was found to be 94.1%. Further, the “concentration at which the highest degradation was observed” value at METTL3-14 [2] was 1 µM. For the same molecule, the “degradation levels of METTL3 and METTL14” value at METTL3-14 [3] was “comparable to those in MOLM-13”. In addition, the “MOLM-13 West. blot at 24h 2 μM comp conc. Degradation (%) of METTL14” value (“MOLM-13 West. blot … (%) of METTL14” for short) in the data set with METTL14 is 52% and 52 ± 6%. Further, at METTL3-14 [4], the “degradation levels of METTL3 and METTL14” value is given as “comparable to those in MOLM-13”.

Regarding `CC1(C)CCN(Cc2cc(F)c(N3CC(=O)NC4(CCN(c5cc(NCc6cccc(CNC(=O)CCCCCCCCCCn7cc(CNc8cccc9c8C(=O)N(C8CCC(=O)NC8=O)C9=O)nn7)c6)ncn5)CC4)C3)cc2F)CC1` (centres unmarked) [Compound 20], in data set [1], the viability at 72 h, 0.6 µM worked out at 101%; the viability at 72 h, 1.25 µM was determined as 94.6%; the viability at 72 h, […] was found to be 90.7%; the viability at 72 h, 5 µM worked out at 89.5%. The viability at 72 h, 10 µM in data set [1] worked out at 86.4%. At METTL3-14 [2], the “METTL3–14 levels in the presence of UZH2” value was “elevated levels of METTL3–14”, the “METTL3–14 degradation in the presence of lenalidomide” value is on record as “did not observe any degradation” and the “degradation of METTL3 and/or METTL14” value is no less than 50%. On METTL3-14 [3], the “degradation levels of METTL3 and METTL14” value is “comparable to those in MOLM-13”. For the same molecule, the “reduction of METTL3” value at METTL3 is given as 48%. The “MOLM-13 West. blot … (%) of METTL14” value in the data set with METTL14 was 51% and 51 ± 10%. In addition, the “degradation levels of METTL3 and METTL14” value on METTL3-14 [4] was “comparable to those in MOLM-13”.

For `CC1(C)CCN(Cc2cc(F)c(N3CC(=O)NC4(CCN(c5cc(NCC6CCN(C(=O)CCCNc7cccc8c7C(=O)N(C7CCC(=O)NC7=O)C8=O)CC6)ncn5)CC4)C3)cc2F)CC1` (centres unmarked) [Compound 22], in data set [1], the viability at 72 h, 0.6 µM is 95.8%; the viability at 72 h, 1.25 µM was determined as 97.8%; the viability at 72 h, […] was 96.2%; the viability at 72 h, 5 µM worked out at 88.4%. For the same molecule, the viability at 72 h, 10 µM in data set [1] was determined as 77.4%. The antiproliferative effect result in the data set with PC3 cell line is given as “antiproliferative effect”. Also, on METTL3-14 [3], the “degradation levels of METTL3 and METTL14” value is on record as “comparable to those in MOLM-13”. At METTL3, the “reduction of METTL3” value is reported as 64%. In the data set with METTL14, the “MOLM-13 West. blot … (%) of METTL14” value is reported as 55 ± 11%. The “degradation levels of METTL3 and METTL14” value on METTL3-14 [4] was “comparable to those in MOLM-13”.

For `CC1(C)CCN(Cc2cc(F)c(N3CC(=O)NC4(CCN(c5cc(NCC6CCN(C(=O)CCCCCNc7cccc8c7C(=O)N(C7CCC(=O)NC7=O)C8=O)CC6)ncn5)CC4)C3)cc2F)CC1` (centres unmarked) [Compound 24], in data set [1], the viability at 72 h, 0.6 µM was 102%; the viability at 72 h, 1.25 µM is 95.2%; the viability at 72 h, […] was determined as 109%; the viability at 72 h, 5 µM came to 104%. In data set [1], the viability at 72 h, 10 µM is 91%. For the same molecule, the antiproliferative effect result with PC3 cell line is “antiproliferative effect”. For the same molecule, on METTL3-14 [2], the “METTL3–14 levels in the presence of UZH2” value is given as “elevated levels of METTL3–14”, the “METTL3–14 degradation in the presence of lenalidomide” value is recorded as “did not observe any degradation” and the “degradation of METTL3 and/or METTL14” value is reported as no less than 50%. Besides, the “degradation levels of METTL3 and METTL14” value on METTL3-14 [3] is on record as “comparable to those in MOLM-13”. Besides, the “MOLM-13 West. blot … (%) of METTL14” value in the data set on METTL14 was determined as 50 ± 13%. Moreover, the “degradation levels of METTL3 and METTL14” value on METTL3-14 [4] is recorded as “comparable to those in MOLM-13”.

Regarding `CC1(C)CCN(Cc2cc(F)c(N3CC(=O)NC4(CCN(c5cc(NCCN6CCN(C(=O)CCCCCNc7cccc8c7C(=O)N(C7CCC(=O)NC7=O)C8=O)CC6)ncn5)CC4)C3)cc2F)CC1` (centres unmarked) [Compound 30], in data set [1], the viability at 72 h, 0.6 µM is 91.3%; the viability at 72 h, 1.25 µM turned out to be 90.9%; the viability at 72 h, […] came out at 91.1%; the viability at 72 h, 5 µM came to 82.5%. In data set [1], the viability at 72 h, 10 µM is 78.4%. Further, the antiproliferative effect entry in the data set on PC3 cell line was “antiproliferative effect”. For the same molecule, the “highest degradation in concentration dependence” value on METTL3-14 [2] (MOLM-13, 0.1 μM) is recorded as “up to 60%”. For the same molecule, the “concentration at which the highest degradation was observed” value on METTL3-14 [2] came out at 0.1 µM. Also, at METTL3-14 [3], the “degradation levels of METTL3 and METTL14” value is given as “comparable to those in MOLM-13”. In addition, the “degradation levels of METTL3 and METTL14” value at METTL3-14 [4] is on record as “comparable to those in MOLM-13”.
